How the values were obtained:
Conditions in all cases: substance 10^−9M
[1] = tested on: primary murine T-cells; assay: Cytokine secretion on protein level in activated primary murine T-cells (13-plex FACS / Luminex, supernatant); format: cell-based, C57BL/6 mice
Procedure, shortened: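 T-cells from secondary lymphatic organs of naïve C57BL/6 mice, stimulated with PMA/Ionomycin or IFN-γ; supernatant cytokines measured by 13-plex FACS 48 h and 72 h after stimulation. In another run, PMA/Ionomycin-stimulated cells received compounds at 10^−7, 10^−9 and 10^−11 M, with IFN-γ, IL-17 and IL-10 measured by Luminex.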

[2] = tested on: human keratinocyte cell line (HaCaT); assay: Cytokine secretion on protein level in activated human keratinocyte cell line HaCaT (13-plex FACS / Luminex, supernatant); format: cell-based
Procedure, shortened: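 Stimulus: PMA/Ionomycin or IFN-γ, 48 h; cells: HaCaT or human peripheral-blood T-cells; tripeptide treatment; readout: supernatant cytokines via 13-plex FACS or Luminex, 48–72 h post-stimulation.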

[3] = tested on: primary human T-cells; assay: Cytokine secretion on protein level in activated primary human T-cells (13-plex FACS / Luminex, supernatant); format: cell-based
Procedure, shortened: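 Primary T-cells from peripheral blood of healthy volunteers, or HaCaT cells, were activated with PMA/Ionomycin or IFN-γ for 48 h and treated with tripeptides. Supernatants were collected 48 h and 72 h after stimulation and cytokines (IL-1, IL-2, IL-6, IL-12p70, IL-17, IFN-γ, TNF-α) were measured by 13-plex FACS.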

[4] = primary murine T-cells stimulated with IFN-γ
[5] = primary murine T-cells stimulated with PBS
[6] = primary murine T-cells stimulated with PMA/Ionomycin
[7] = HaCaT stimulated with PMA/Ionomycin
[8] = primary human T-cells stimulated with IFN-γ
[9] = primary human T-cells stimulated with PBS
[10] = primary human T-cells stimulated with PMA/Ionomycin

H-(L)-Om-(L)-Pro-Aib-OH [Example 11]
IL-1 cytokine concentration [1, 4]: 100.08 pg/mL | IL-2 cytokine concentration [1, 4]: 208.9 pg/mL | IL-4 cytokine concentration [1, 4]: 53.65 pg/mL | IL-5 cytokine concentration [1, 4]: 531.87 pg/mL | IL-6 cytokine concentration [1, 4]: 193.06 pg/mL | IL-10 cytokine concentration [1, 4]: 1383.43 pg/mL | IL-13 cytokine concentration [1, 4]: 0 pg/mL | IL-17 cytokine concentration [1, 4]: 39.84 pg/mL | IL-21 cytokine concentration [1, 4]: 263.02 pg/mL | IL-22 cytokine concentration [1, 4]: 31.59 pg/mL | IL-27 cytokine concentration [1, 4]: 42.99 pg/mL | TNF-α cytokine concentration [1, 4]: 19.71 pg/mL | IFN-γ cytokine concentration [1, 5]: 8321.6 pg/mL | IL-1 cytokine concentration [1, 5]: 75.71 pg/mL | IL-2 cytokine concentration [1, 5]: 204.62 pg/mL | IL-4 cytokine concentration [1, 5]: 0 pg/mL | IL-5 cytokine concentration [1, 5]: 459.03 pg/mL | IL-6 cytokine concentration [1, 5]: 172.33 pg/mL | IL-10 cytokine concentration [1, 5]: 905.76 pg/mL | IL-13 cytokine concentration [1, 5]: 0 pg/mL | IL-17 cytokine concentration [1, 5]: 0 pg/mL | IL-21 cytokine concentration [1, 5]: 0 pg/mL | IL-22 cytokine concentration [1, 5]: 66.43 pg/mL | IL-27 cytokine concentration [1, 5]: 141.82 pg/mL | TNF-α cytokine concentration [1, 5]: 0 pg/mL | IFN-γ cytokine concentration [1, 6]: 2756.75 pg/mL | IL-1 cytokine concentration [1, 6]: 178.78 pg/mL | IL-2 cytokine concentration [1, 6]: 261.53 pg/mL | IL-4 cytokine concentration [1, 6]: 117.11 pg/mL | IL-5 cytokine concentration [1, 6]: 513.39 pg/mL | IL-6 cytokine concentration [1, 6]: 333.86 pg/mL | IL-10 cytokine concentration [1, 6]: 1302.16 pg/mL | IL-13 cytokine concentration [1, 6]: 0 pg/mL | IL-17 cytokine concentration [1, 6]: 244.88 pg/mL | IL-21 cytokine concentration [1, 6]: 0 pg/mL | IL-22 cytokine concentration [1, 6]: 94.31 pg/mL | IL-27 cytokine concentration [1, 6]: 99.05 pg/mL | TNF-α cytokine concentration [1, 6]: 86.61 pg/mL | IL-1 cytokine concentration ([2]; HaCaT stimulated with IFN-γ): 31.54 pg/mL | IL-2 cytokine concentration ([2]; HaCaT stimulated with IFN-γ): 0 pg/mL | IL-4 cytokine concentration ([2]; HaCaT stimulated with IFN-γ): 0 pg/mL | IL-5 cytokine concentration ([2]; HaCaT stimulated with IFN-γ): 0 pg/mL | IL-6 cytokine concentration ([2]; HaCaT stimulated with IFN-γ): 265.29 pg/mL | IL-9 cytokine concentration ([2]; HaCaT stimulated with IFN-γ): 0 pg/mL | IL-10 cytokine concentration ([2]; HaCaT stimulated with IFN-γ): 0 pg/mL | IL-12p70 cytokine concentration ([2]; HaCaT stimulated with IFN-γ): 0 pg/mL | IL-13 cytokine concentration ([2]; HaCaT stimulated with IFN-γ): 989.21 pg/mL | IL-17 cytokine concentration ([2]; HaCaT stimulated with IFN-γ): 0 pg/mL | IL-22 cytokine concentration ([2]; HaCaT stimulated with IFN-γ): 0 pg/mL | TNF-α cytokine concentration ([2]; HaCaT stimulated with IFN-γ): 0 pg/mL | IFN-γ cytokine concentration ([2]; HaCaT stimulated with PBS): 0 pg/mL | IL-1 cytokine concentration ([2]; HaCaT stimulated with PBS): 0 pg/mL | IL-2 cytokine concentration ([2]; HaCaT stimulated with PBS): 0 pg/mL | IL-4 cytokine concentration ([2]; HaCaT stimulated with PBS): 99.64 pg/mL | IL-5 cytokine concentration ([2]; HaCaT stimulated with PBS): 0 pg/mL | IL-6 cytokine concentration ([2]; HaCaT stimulated with PBS): 42.94 pg/mL | IL-9 cytokine concentration ([2]; HaCaT stimulated with PBS): 1.97 pg/mL | IL-10 cytokine concentration ([2]; HaCaT stimulated with PBS): 43.56 pg/mL | IL-12p70 cytokine concentration ([2]; HaCaT stimulated with PBS): 0 pg/mL | IL-13 cytokine concentration ([2]; HaCaT stimulated with PBS): 0 pg/mL | IL-17 cytokine concentration ([2]; HaCaT stimulated with PBS): 0 pg/mL | IL-22 cytokine concentration ([2]; HaCaT stimulated with PBS): 0 pg/mL | TNF-α cytokine concentration ([2]; HaCaT stimulated with PBS): 0 pg/mL | IFN-γ cytokine concentration [2, 7]: 57.58 pg/mL | IL-1 cytokine concentration [2, 7]: 0 pg/mL | IL-2 cytokine concentration [2, 7]: 19.32 pg/mL | IL-4 cytokine concentration [2, 7]: 0 pg/mL | IL-5 cytokine concentration [2, 7]: 0 pg/mL | IL-6 cytokine concentration [2, 7]: 207.76 pg/mL | IL-9 cytokine concentration [2, 7]: 0 pg/mL | IL-10 cytokine concentration [2, 7]: 87.41 pg/mL | IL-12p70 cytokine concentration [2, 7]: 0 pg/mL | IL-13 cytokine concentration [2, 7]: 0 pg/mL | IL-17 cytokine concentration [2, 7]: 0 pg/mL | IL-22 cytokine concentration [2, 7]: 0 pg/mL | TNF-α cytokine concentration [2, 7]: 0 pg/mL | IL-1 cytokine concentration [3, 8]: 0 pg/mL | IL-2 cytokine concentration [3, 8]: 212.98 pg/mL | IL-4 cytokine concentration [3, 8]: 0 pg/mL | IL-5 cytokine concentration [3, 8]: 83.3 pg/mL | IL-6 cytokine concentration [3, 8]: 108.08 pg/mL | IL-9 cytokine concentration [3, 8]: 8.15 pg/mL | IL-10 cytokine concentration [3, 8]: 50.11 pg/mL | IL-12p70 cytokine concentration [3, 8]: 0 pg/mL | IL-13 cytokine concentration [3, 8]: 180.41 pg/mL | IL-17 cytokine concentration [3, 8]: 0 pg/mL | IL-22 cytokine concentration [3, 8]: 0 pg/mL | TNF-α cytokine concentration [3, 8]: 52.55 pg/mL | IL-1 cytokine concentration [3, 9]: 0 pg/mL | IL-2 cytokine concentration [3, 9]: 0 pg/mL | IL-4 cytokine concentration [3, 9]: 121.69 pg/mL | IL-5 cytokine concentration [3, 9]: 0 pg/mL | IL-6 cytokine concentration [3, 9]: 172.14 pg/mL | IL-9 cytokine concentration [3, 9]: 10.84 pg/mL | IL-10 cytokine concentration [3, 9]: 0 pg/mL | IL-12p70 cytokine concentration [3, 9]: 0 pg/mL | IL-13 cytokine concentration [3, 9]: 187.86 pg/mL | IL-17 cytokine concentration [3, 9]: 0 pg/mL | IL-22 cytokine concentration [3, 9]: 0 pg/mL | INF-α cytokine concentration [3, 9]: 505.68 pg/mL | TNF-α cytokine concentration [3, 9]: 52.55 pg/mL | IL-1 cytokine concentration [3, 10]: 677.32 pg/mL | IL-2 cytokine concentration [3, 10]: 3920.52 pg/mL | IL-4 cytokine concentration [3, 10]: 112.94 pg/mL | IL-5 cytokine concentration [3, 10]: 525.15 pg/mL | IL-6 cytokine concentration [3, 10]: 1474.06 pg/mL | IL-9 cytokine concentration [3, 10]: 380.3 pg/mL | IL-10 cytokine concentration [3, 10]: 563.89 pg/mL | IL-12p70 cytokine concentration [3, 10]: 0 pg/mL | IL-13 cytokine concentration [3, 10]: 1258.74 pg/mL | IL-17 cytokine concentration [3, 10]: 3306.09 pg/mL | IL-22 cytokine concentration [3, 10]: 0 pg/mL | INF-α cytokine concentration [3, 10]: 9554.27 pg/mL | TNF-α cytokine concentration [3, 10]: 2209.22 pg/mL

Source: patent US10954269B2, “Anti-inflammatory tripeptides” (Dr. August Wolff Gmbh & Co. KG Arzneimittel, priority 2013, dated 2021)
